# Assay results as given in patent US20050244490A1, “Dosing methods for beta-D-2',3'-dideoxy-2',3'-didehydro-5-fluorocytidine antiviral therapy” (priority 2003, published 2005).
# Legend:
# HepG2 cells = assay: Mitochondrial toxicity testing (mitDNA, rRNA, lactic acid); format: cell-based; details: 14 days; for % Change in Lactic Acid: normalized for cytotoxicity
# Protocol: HepG2 cells were incubated for 14 days with the active agent. and mitDNA and rRNA levels were determined by quantitative real-time PCR. The results are tabulated in […]
# [1] = Cytotoxicity, MTT reduction; format: cell-based; details: read-out: TC50
# Protocol: Cytotoxicity was measured by reduction of the formazan dye MTT, which is catalyzed by mitochondrial succinate dehydrogenase.
# wild type HIV-RT = target: T1, wild type HIV-RT (Human immunodeficiency virus type 1 group M subtype B, UniProt P04585); assay: Ki / Km for wild type HIV-RT; format: biochemical, HIV-1
# T1 construct: The Ki value for β-D-D4FC-TP for wild type HIV-RT
# HIV viral load = assay: Viral load decline on repeated dosing, β-D-D4FC and competing nucleosides; format: in vivo; details: 50 mg QD, duration of dosing 10
# in vivo = details: rat
# M184V mutant RT = M184V mutant RT (Human immunodeficiency virus type 1 group M subtype B, UniProt P04585, M771V); assay: biochemical; format: biochemical, HIV-1; details: read-out: Ki for mutant RT
# clinical [2] = details: in vivo
# clinical [3] = details: in vivo; for CL renal: CLr; for CL/F: CLtot/F
# Protocol: Total of 18 HIV-1 infected males, aged 18-55 years, enrolled, 6 per treatment cohort.
# In Cohort 3, subjects received either 100 mg, or 200 mg, or placebo.
# The data was analyzed using non-compartmental and two-compartmental models.
# HIV RNA levels were also determined using quantitative real-time RT-PCR.
# Plasma HIV-1 RNA levels were measured by quantitative reverse transcriptase-polymerase chain reaction (Q-RT-PCR) essentially as described by Stuyver, L. J. et al., “Antiviral activity and cellular toxicity of modified 2′,3′-dideoxy-2′,3′-didehydrocytidine analogues” Antimicrob Agents Chemother.
structure (smiles),measurement,setting,value
"Nc1nc(=O)n(C2C=CC(CO)O2)cc1F [β-D-D4FC, β-D-2′,3′-Didehydro-2′,3′-dideoxy-5-fluorocytidine]",% Change in mitDNA,HepG2 cells; 1 μM,0%
same,% Change in rRNA,HepG2 cells; 1 μM,0%
same,% Change in Lactic Acid,HepG2 cells; 1 μM,+12%
same,% Change in mitDNA,HepG2 cells; 10 μM,−1.6%
same,% Change in rRNA,HepG2 cells; 10 μM,0%
same,% Change in Lactic Acid,HepG2 cells; 10 μM,−2%
same,CC50 at 96 h,"[1]; African green monkey, Vero cells",> 100 µM
same,CC50 at 144 h,[1]; PBMCs,> 100 µM
same,CC50 at 30 h,"[1]; hamster, BHK-21 cells",> 30 µM
same,CC50 at 24 h,"[1]; human, 293 cells",> 30 µM
same,CC50 at 48 h,"[1]; human, Huh7 cells",> 30 µM
same,CC50 at 72 h,"[1]; human, MT-2 cells",> 220 µM
same,Ki,wild type HIV-RT,0.1 µM
same,Viral Load Decline (log),HIV viral load,−1.67 log
same,AUC at 28 d,in vivo; 15 mg/kg,70 µM·h
same,Cmax at 28 d,in vivo; 15 mg/kg,17 µM
same,AUC at 28 d,in vivo; 45 mg/kg,161 µM·h
same,Cmax at 28 d,in vivo; 45 mg/kg,44 µM
same,Ki,M184V mutant RT,0.3 to 0.5 µM
same,half-life,clinical [2],6 to 15 h
same,mean terminal half-life in plasma (t1/2),"clinical [3]; human, 50 mg",6.8±4.2 h to 15.6±12.4
same,mean t1/2,"clinical [3]; human, 200 mg",11.3±1.6 hours to 14.3±3.1
same,oral bioavailability,"clinical [3]; human, po",high oral bioavailability
same,mean plasma half-life (t1/2),"clinical [3]; male, human",12.3 ± 4.0 h
same,Cmax,"clinical [3]; male, human, 10 mg",~1 µM
same,AUC,"clinical [3]; male, human, 10 mg, AUC Actual",3.6 ± 0.5 µM·h
same,AUC,"clinical [3]; male, human, 10 mg, AUC(0-τ)",843 ng·h/mL
same,AUC(0-inf),"clinical [3]; male, human, 10 mg",858 ng·h/mL
same,CL renal,"clinical [3]; male, human, 10 mg",136 mL/min
same,CL/F,"clinical [3]; male, human, 10 mg",196 mL/min
same,Cmax,"clinical [3]; male, human, 10 mg, Cmax",197 ng/mL
same,Cmax,"clinical [3]; male, human, 10 mg, Cmax Actual",0.87 ± 0.13 µM
same,Cmax,"clinical [3]; male, human, 10 mg, lowest Cmax, at which a maximal effect of viral inhibition was obtained",0.87 µM
same,half-life,"clinical [3]; male, human, 10 mg, t1/2 λz",4.2 h
same,Tmax,"clinical [3]; male, human, 10 mg, tmax",1 h
same,AUC,"clinical [3]; male, human, 25 mg, AUC Actual",8.1 ± 1.5 µM·h
same,AUC,"clinical [3]; male, human, 25 mg, AUC(0-τ)",1830 ng·h/mL
same,AUC(0-inf),"clinical [3]; male, human, 25 mg",1840 ng·h/mL
same,CL renal,"clinical [3]; male, human, 25 mg",120 mL/min
same,CL/F,"clinical [3]; male, human, 25 mg",230 mL/min
same,Cmax,"clinical [3]; male, human, 25 mg, Cmax",406 ng/mL
same,Cmax,"clinical [3]; male, human, 25 mg, Cmax Actual",1.8 ± 0.5 µM
same,half-life,"clinical [3]; male, human, 25 mg, t1/2 λz",4.49 h
same,Tmax,"clinical [3]; male, human, 25 mg, tmax",1.17 h
same,AUC(0-τ),"clinical [3]; male, human, 50 mg","3,196 ng · h/mL"
same,AUC(0-∞),"clinical [3]; male, human, 50 mg","3,221 ng · h/mL"
same,CLr,"clinical [3]; male, human, 50 mg",4.30 L/h
same,CLtot/F,"clinical [3]; male, human, 50 mg","17,492 mL/h"
same,Cmax,"clinical [3]; male, human, 50 mg",572 ng/mL
same,t1/2 λz,"clinical [3]; male, human, 50 mg",7.02 h
same,AUC,"clinical [3]; male, human, 50 mg, AUC Actual",27 ± 6.4 µM·h
same,AUC,"clinical [3]; male, human, 50 mg, AUC(0-τ)",3470 ng·h/mL
same,AUC(0-inf),"clinical [3]; male, human, 50 mg",3500 ng·h/mL
same,CL renal,"clinical [3]; male, human, 50 mg",73.2 mL/min
same,CL/F,"clinical [3]; male, human, 50 mg",245 mL/min
same,Cmax,"clinical [3]; male, human, 50 mg, Cmax",668 ng/mL
same,Cmax,"clinical [3]; male, human, 50 mg, Cmax Actual",4.8 ± 1.3 µM
same,Cmax,"clinical [3]; male, human, 50 mg, mean Cmax",2.5 µM
same,half-life,"clinical [3]; male, human, 50 mg, t1/2 λz",7.73 h
same,Tmax,"clinical [3]; male, human, 50 mg, tmax",1 h
same,AUC,"clinical [3]; male, human, 100 mg, AUC Actual",32.7 ± 6.8 µM·h
same,AUC,"clinical [3]; male, human, 100 mg, AUC(0-τ)",7010 ng·h/mL
same,AUC(0-inf),"clinical [3]; male, human, 100 mg",7100 ng·h/mL
same,CL renal,"clinical [3]; male, human, 100 mg",124 mL/min
same,CL/F,"clinical [3]; male, human, 100 mg",242 mL/min
same,Cmax,"clinical [3]; male, human, 100 mg, Cmax",1120 ng/mL
same,Cmax,"clinical [3]; male, human, 100 mg, Cmax Actual",5 ± 1.2 µM
same,half-life,"clinical [3]; male, human, 100 mg, t1/2 λz",9.25 h
same,Tmax,"clinical [3]; male, human, 100 mg, tmax",2.92 h
same,AUC,"clinical [3]; male, human, 200 mg, AUC Actual",52.5 ± 9.2 µM·h
same,AUC,"clinical [3]; male, human, 200 mg, AUC(0-τ)",11200 ng·h/mL
same,AUC(0-inf),"clinical [3]; male, human, 200 mg",11400 ng·h/mL
same,CL renal,"clinical [3]; male, human, 200 mg",125 mL/min
same,CL/F,"clinical [3]; male, human, 200 mg",301 mL/min
same,Cmax,"clinical [3]; male, human, 200 mg, Cmax",1750 ng/mL
same,Cmax,"clinical [3]; male, human, 200 mg, Cmax Actual",7.7 ± 1.6 µM
same,Tmax,"clinical [3]; male, human, 200 mg, mean Tmax",2.9 ± 1.6 h
same,half-life,"clinical [3]; male, human, 200 mg, t1/2 λz",10.9 h
same,Tmax,"clinical [3]; male, human, 200 mg, tmax",3.33 h
same,Tmax,"clinical [3]; male, human, mean Tmax",1.1 ± 0.2 h
same,half-life,"clinical [3]; male, human, mean plasma half-life (t1/2)",12.3 ± 4 h
same,AUC Projected,"clinical [3]; male, human, po, 10 mg",5.0 µM·h
same,Cmax,"clinical [3]; male, human, po, 10 mg",0.63 µM
same,AUC,"clinical [3]; male, human, po, 10 mg, AUC",3.57 ± 0.55 µM·h
same,Cmax,"clinical [3]; male, human, po, 10 mg, Cmax",0.87 ± 0.13 µM
same,half-life,"clinical [3]; male, human, po, 10 mg, T ½",6.8 ± 4.2 h
same,Tmax,"clinical [3]; male, human, po, 10 mg, Tmax",1 h
same,AUC Projected,"clinical [3]; male, human, po, 25 mg",12.5 µM·h
same,Cmax,"clinical [3]; male, human, po, 25 mg",1.6 µM
same,AUC,"clinical [3]; male, human, po, 25 mg, AUC",8.12 ± 1.47 µM·h
same,Cmax,"clinical [3]; male, human, po, 25 mg, Cmax",1.76 ± 0.48 µM
same,half-life,"clinical [3]; male, human, po, 25 mg, T ½",15.6 ± 12.4 h
same,Tmax,"clinical [3]; male, human, po, 25 mg, Tmax",1.4 ± 1.1 h
same,AUC,"clinical [3]; male, human, po, 50 mg",28.03 ± 4.51 µM·h
same,AUC Projected,"clinical [3]; male, human, po, 50 mg",25 µM·h
same,T ½,"clinical [3]; male, human, po, 50 mg",13.8 ± 2.4 h
same,AUC,"clinical [3]; male, human, po, 50 mg, AUC",25.9 ± 8.3 µM·h
same,Cmax,"clinical [3]; male, human, po, 50 mg, Cmax",4.4 ± 1.6 µM
same,half-life,"clinical [3]; male, human, po, 50 mg, T ½",14.3 ± 3.1 h
same,Tmax,"clinical [3]; male, human, po, 50 mg, Tmax",2 ± 0.8 h
same,AUC Projected,"clinical [3]; male, human, po, 100 mg",50 µM·h
same,Cmax,"clinical [3]; male, human, po, 100 mg",6.3 µM
same,AUC,"clinical [3]; male, human, po, 100 mg, AUC",32.7 ± 6.85 µM·h
same,Cmax,"clinical [3]; male, human, po, 100 mg, Cmax",4.95 ± 1.2 µM
same,half-life,"clinical [3]; male, human, po, 100 mg, T ½",11.3 ± 1.6 h
same,Tmax,"clinical [3]; male, human, po, 100 mg, Tmax",2.9 ± 1 h
same,AUC Projected,"clinical [3]; male, human, po, 200 mg",100 µM·h
same,Cmax,"clinical [3]; male, human, po, 200 mg",12.6 µM
same,AUC,"clinical [3]; male, human, po, 200 mg, AUC",52.5 ± 9.2 µM·h
same,Cmax,"clinical [3]; male, human, po, 200 mg, Cmax",7.7 ± 1.6 µM
same,half-life,"clinical [3]; male, human, po, 200 mg, T ½",12 ± 0.6 h
same,Tmax,"clinical [3]; male, human, po, 200 mg, Tmax",3.3 ± 1.6 h
same,time plasma levels remain above the median effective concentrations in human PBM cells,clinical [3]; male,> 24 h
